The supplement of paper PMC10307832

Key:
Assay in all cases: relative viability (nuclei count vs DMSO), 5 days (fraction); higher = more cells survive
[1] = compound: CS(=O)(=O)N1CCN(Cc2cc3nc(-c4cccc5[nH]ncc45)nc(N4CCOCC4)c3s2)CC1 [Pictilisib] + Cc1cc(Nc2cc(N3CCN(C)CC3)nc(Sc3ccc(NC(=O)C4CC4)cc3)n2)n[nH]1 [Tozasertib] (partner 0.1 µM)
In short: (§1)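 Relative viability equals treated-well nuclei counts divided by vehicle-well nuclei counts. Counts came from 4× images of lung cancer cell lines grown in 1536-well plates for 5 days after pin-tool dosing on the day after seeding. Dosing used one drug alone or a fixed anchor-drug dose plus five library-drug doses (not always all listed) in √10 steps, and values are medians of duplicate plates.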

[2] = compound: CS(=O)(=O)N1CCN(Cc2cc3nc(-c4cccc5[nH]ncc45)nc(N4CCOCC4)c3s2)CC1 [Pictilisib] + Cc1nc(NC(=O)N2CCC[C@H]2C(N)=O)sc1-c1ccnc(C(C)(C)C(F)(F)F)c1 [Alpelisib] (partner 2 µM)
In short: as §1

[3] = compound: NC1(c2ccc(-c3nc4ccn5c(=O)[nH]nc5c4cc3-c3ccccc3)cc2)CCC1 [MK-2206] + CC1(C)CCC(c2ccc(Cl)cc2)=C(CN2CCN(c3ccc(C(=O)NS(=O)(=O)c4ccc(N[C@H](CCN5CCOCC5)CSc5ccccc5)c(S(=O)(=O)C(F)(F)F)c4)cc3)CC2)C1 [Navitoclax] (partner 0.5 µM)
In short: as §1

[4] = compound: NC1(c2ccc(-c3nc4ccn5c(=O)[nH]nc5c4cc3-c3ccccc3)cc2)CCC1 [MK-2206] + COc1cc2c(Oc3ccc(NC(=O)C4(C(=O)Nc5ccc(F)cc5)CC4)cc3F)ccnc2cc1OCCCN1CCOCC1 [Foretinib] (partner 0.25 µM)
In short: as §1

[5] = compound: NC1(c2ccc(-c3nc4ccn5c(=O)[nH]nc5c4cc3-c3ccccc3)cc2)CCC1 [MK-2206] + O=C(c1cc(Cc2n[nH]c(=O)c3ccccc23)ccc1F)N1CCN(C(=O)C2CC2)CC1 [Olaparib] (partner 8 µM)
In short: as §1

| Cell Line | relative viability ([1]; first compound 0.02 µM) | relative viability ([1]; first compound 0.06325 µM) | relative viability ([1]; first compound 0.6325 µM) | relative viability ([1]; first compound 2 µM) | relative viability ([2]; first compound 0.02 µM) | relative viability ([2]; first compound 0.06325 µM) | relative viability ([2]; first compound 0.6325 µM) | relative viability ([2]; first compound 2 µM) | relative viability ([3]; first compound 0.01 µM) | relative viability ([3]; first compound 0.03162 µM) | relative viability ([3]; first compound 0.3162 µM) | relative viability ([3]; first compound 1 µM) | relative viability ([4]; first compound 0.01 µM) | relative viability ([4]; first compound 0.03162 µM) | relative viability ([4]; first compound 0.3162 µM) | relative viability ([4]; first compound 1 µM) | relative viability ([5]; first compound 0.01 µM) | relative viability ([5]; first compound 0.03162 µM) | relative viability ([5]; first compound 0.3162 µM) | relative viability ([5]; first compound 1 µM) |
| --- | --- | --- | --- | --- | --- | --- | --- | --- | --- | --- | --- | --- | --- | --- | --- | --- | --- | --- | --- | --- |
| PC-14 | 0.61 | 0.583 | 0.641 | 0.46 | 0.924 | 0.943 | 1.02 | 0.766 | 0.956 | 1.05 | 1.1 | 1.01 | 0.903 | 0.993 | 0.985 | 0.994 | 0.274 | 0.313 | 0.371 | 0.354 |
| COR-L23 | 0.245 | 0.185 | 0.139 | 0.136 | 0.821 | 0.804 | 0.8 | 0.572 | 0.969 | 1.14 | 1.07 | 0.877 | 1.1 | 0.959 | 1.12 | 0.948 | 0.32 | 0.31 | 0.297 | 0.328 |
| H3255 | 0.601 | 0.474 | 0.648 | 0.486 | 0.684 | 0.601 | 0.601 | 0.523 | 0.519 | 0.579 | 0.439 | 0.312 | 0.866 | 0.971 | 0.731 | 0.746 | 0.539 | 0.58 | 0.538 | 0.518 |
| NCI-H2126 | 0.826 | 0.807 | 0.73 | 0.517 | 0.776 | 0.712 | 0.679 | 0.564 | 0.821 | 0.814 | 0.782 | 0.793 | 1.14 | 1.17 | 1.18 | 1.13 | 0.932 | 1.01 | 0.87 | 0.925 |
| HCC-366 | 0.19 | 0.0882 | 0.0364 | 0.0156 | 0.452 | 0.386 | 0.335 | 0.174 | 1.04 | 1.11 | 0.736 | 1.04 | 0.924 | 1.03 | 0.869 | 0.975 | 0.367 | 0.472 | 0.328 | 0.322 |
| LU99A | 0.338 | 0.292 | 0.262 | 0.163 | 0.461 | 0.61 | 0.413 | 0.287 | 0.862 | 0.77 | 0.72 | 0.822 | 0.805 | 0.774 | 0.847 | 0.816 | 0.283 | 0.231 | 0.251 | 0.287 |
| HOP-62 | 0.319 | 0.415 | 0.369 | 0.304 | 1.09 | 0.854 | 0.788 | 0.935 | 0.909 | 1.24 | 1.02 | 1.1 | 1.09 | 1.16 | 1.15 | 1.06 | 0.472 | 0.412 | 0.574 | 0.573 |
| HCC-15 | 0.37 | 0.379 | 0.275 | 0.153 | 0.829 | 0.926 | 0.829 | 0.714 | 0.687 | 0.622 | 0.617 | 0.62 | 0.971 | 1.04 | 0.958 | 0.892 | 0.722 | 0.757 | 0.625 | 0.692 |
| HARA | 0.127 | 0.107 | 0.0682 | 0.0525 | 0.766 | 0.888 | 0.768 | 0.494 | 1.08 | 1.11 | 1.24 | 1.17 | 0.944 | 0.951 | 0.929 | 0.809 | 0.842 | 0.779 | 0.758 | 0.625 |
| SK-MES-1 | 1 | 0.982 | 0.822 | 0.649 | 0.856 | 0.804 | 0.634 | 0.45 | 1.29 | 1.2 | 1.01 | 1.1 | 0.893 | 1.06 | 0.886 | 0.84 | 0.635 | 0.727 | 0.692 | 0.482 |
| NCI-H1355 | 0.582 | 0.474 | 0.484 | 0.183 | 0.828 | 0.741 | 0.865 | 0.505 | 0.961 | 0.828 | 0.961 | 0.819 | 0.94 | 1.02 | 0.952 | 0.952 | 0.767 | 0.829 | 0.672 | 0.761 |
| NCI-H727 | 0.614 | 0.542 | 0.568 | 0.486 | 0.715 | 0.55 | 0.519 | 0.376 | 0.424 | 0.367 | 0.212 | 0.314 | 1.12 | 0.889 | 0.838 | 0.942 | 0.696 | 0.674 | 0.716 | 0.675 |
| NCI-H520 | 0.413 | 0.412 | 0.234 | 0.232 | 0.996 | 0.815 | 0.724 | 0.267 | 1.11 | 1.09 | 0.701 | 0.489 | 0.785 | 1.16 | 0.332 | 0.28 | 0.359 | 0.331 | 0.228 | 0.195 |
| NCI-H838 | 0.266 | 0.218 | 0.242 | 0.149 | 1.04 | 0.968 | 1.02 | 0.467 | 1.15 | 1.19 | 1.19 | 1.04 | 0.956 | 1.08 | 0.962 | 0.908 | 0.768 | 0.857 | 0.767 | 0.685 |
| LK-2 | 0.209 | 0.173 | 0.154 | 0.158 | 1.16 | 1.06 | 0.925 | 0.905 | 0.837 | 0.938 | 0.684 | 0.61 | 1.57 | 1.19 | 1.34 | 1.39 | 0.822 | 0.852 | 0.664 | 0.467 |
